Laboratory results as given in PMC10454396 (International Journal of Molecular Sciences, 2023).
In brackets after ≈: the same amount, converted by molar mass. Like-named read-outs stand apart in the source and are kept apart here.

Tests used:
[1] = Phase I metabolic stability, human liver microsomes; format: in vitro ADME; conditions: pH 7.4
Protocol: For the evaluation of phase I metabolic stability, the compound (1 µM) was incubated with 0.5 mg/mL pooled mouse/rat liver microsomes (Xenotech, Kansas City, MO, USA) or human liver microsomes (Corning, NY, USA), 2 mM NADPH and 10 mM MgCl2 at pH 7.4 for 120 min at 37 °C. The metabolic stability of testosterone, verapamil and ketoconazole were determined in parallel to confirm the enzymatic activity of mouse/rat liver microsomes; for human liver microsomes testosterone, diclofenac and propranolol were used. The incubation was stopped after defined time points by precipitation of aliquots of the assay mixture with two volumes of ice-cold acetonitrile containing internal standard (15 nM diphenhydramine). Samples were stored on ice until the end of the incubation and precipitated protein was removed by centrifugation (15 min, 4 °C, 4000× g).

[2] = Plasma protein binding (RED), human plasma; format: in vitro ADME; conditions: pooled plasma, pH 7.4, human plasma
Protocol: Plasma protein binding was determined using the Rapid Equilibrium Dialysis (RED) system (Thermo Fisher Scientific, Waltham, MA, USA). The compound was diluted in pooled murine (CD-1)/human or Wistar rat plasma (Neo Biotech, Nanterre, France) to 10 µM and added to the respective chamber according to the manufacturer’s protocol, followed by addition of PBS pH 7.4 to the opposite chamber. Samples were taken immediately after addition to the plate as well as after 2, 4 and 5 h by mixing 10 µL with 80 µL ice-cold acetonitrile containing 12.5 nM diphenhydramine as internal standard, followed by addition of 10 µL plasma to samples taken from PBS and vice versa. Samples were stored on ice until the end of the incubation and precipitated protein was removed by centrifugation (15 min, 4 °C, 4000× g, 2 centrifugation steps). Concentration of the remaining test compound at the different time points was analyzed by HPLC-MS/MS (TSQ Altis Plus, Thermo Fisher, Dreieich, Germany). The amount of compound bound to protein was calculated using the equation PPB [%] = 100 − 100 × (amount in buffer chamber/amount in plasma chamber).

[3] = In vivo pharmacokinetics in male CD-1 mice, i.v.; parameters: species or system mouse; conditions: 5 mg/kg i.v.
Protocol: Pharmacokinetic evaluation of sorangicin A in mice was carried out by Pharmacelsus GmbH (Saarbrücken, Germany). All mouse experiments were approved by and conducted in accordance with the regulations of the local Animal Welfare authorities. Nine adult male CD-1 mice (purchased from Janvier Labs, Le Genest-Saint-Isle, France) were used. Animals were housed in a separate temperature-controlled room (20–24 °C) and maintained in a 12 h light/12 h dark cycle. […] Retrobulbar blood samples were collected from three animals at 0.083, 0.25, 0.5, 1, 3 and 7 h after i.v. administration (two time points/ animal). At each of the designated time points 100 µL blood was collected from the eye into lithium heparin tubes. Quantification of sorangicin A in the generated plasma was performed by LC-MS/MS analysis. The pharmacokinetic analysis was performed by applying a non-compartment model using the Kinetica 5.0 software (Thermo Scientific, Waltham, MA, USA). All given parameters were obtained by trapezoid area calculation.

[4] = system: Staphylococcus aureus Newman WT; assay: MIC, broth microdilution, S. aureus Newman wild type; format: cell-based; conditions: Staphylococcus aureus, NEWMAN
Protocol: Cefazolin was obtained from Acros Organics. Ciprofloxacin hydrochloride, linezolid and vancomycin hydrochloride were obtained from Sigma-Aldrich (St. Louis, MO, USA). Tetracycline hydrochloride was obtained from Alfa Aesar. Sorangicin A was provided by HZI, Braunschweig. Stock solutions were prepared in Milli-Q water or dimethyl sulfoxide (DMSO, Sigma-Aldrich). Minimum inhibitory concentrations (MICs) were determined in cation-adjusted Mueller-Hinton broth (MHB2) using the broth microdilution method as recommended by the Clinical and Laboratory Standards Institute (CLSI). The MIC was defined as the lowest concentration of the antibiotic causing complete inhibition of visible growth of the microorganism (CLSI, 2017).
1. In vitro characterization of mCherry expressing Staphylococcus aureus Newman
1.1 Minimum inhibitory concentration
Table S1. Antibiotic susceptibility profile of Staphylococcus aureus Newman. WT: wild type. […]

in vitro = in vitro ADME; conditions: read-out: Plasma Stability t1/2
Protocol: To determine stability in plasma, a similar setup as for the determination of metabolic stability was applied using pooled mouse, human or rat plasma (Neo Biotech, Nanterre, France). Samples were taken by mixing aliquots with four volumes of ice cold acetonitrile containing internal standard (12.5 nM diphenhydramine). The plasma stability of procain, propantheline and diltiazem were determined in parallel to confirm the enzymatic activity.

[5] = parameters: method as in unpublished data from GBF; conditions: ref unpublished data from GBF; cited from earlier work

C/C(=C\[C@H](C)CCCCC(=O)O)[C@@H]1O[C@@H]2C=C[C@H]1OC(=O)\C=C/C=C\C=C\[C@H]1O[C@@H]3C[C@H]1O[C@@H](/C=C/C[C@H]1O[C@H](C[C@H](O)[C@H]1C)[C@@H](O)[C@@H](O)/C=C/CC/C=C/C2)[C@@H]3C [sorangicin A]
microsomal CLint at 1 µM [1]: 90.4 ± 16.5 µL/min/mg
fraction unbound at 10 µM ([2]; 10 µM, read-out: PPB (converted)): 0.13
fraction unbound at 10 µM ([2]; read-out: free fraction): > 0.1
cZ (last measured blood concentration) [3]: 7.2 ng/mL
time plasma levels maintained above the MIC of S. aureus [3]: less than 30 min
AUC(0-t) ([3]; mouse, plasma, iv): 341 ng·h/mL
clearance ([3]; mouse, plasma, iv, read-out: CL (total clearance) (converted)): 238 mL/min/kg
Vd ([3]; mouse, plasma, iv, read-out: Vz): 18 L/kg
C0 ([3]; mouse, plasma, iv, read-out: c0 (maximum blood concentration, extrapolated time point zero)): 1830 ng/mL
half-life ([3]; mouse, plasma, iv, read-out: t1/2 (terminal phase) (converted)): 0.87 h
MIC [4]: 0.0625 µg/mL (≈ 0.0774 µM)
half-life (in vitro; human plasma): > 4 h
half-life at 1 µM (in vitro; rat plasma): > 4 h
outcome in experimental infection models in rats [5]: successful
